“Also recorded” adds a separate entry of the source.
How the values were obtained:
neuronal cells = assay: Intracellular calcium level [Ca2+]i in primary neurons (Fura-2 fluorescence ratio 340/380 nm); format: cell-based, rat; conditions: 200 μM stimulant and 2.5 mM Ca2+, without sorbicillactone A
Description: Material: The same materials as described in Perovic et al. (1998, Mech. Ageing Dev. 101:1-19) were used. Fura-2-acetoxymethylester (Fura-2-AM) was obtained from Molecular Probes (Leiden, The Netherlands), Dulbecco's modified Eagle's Medium with 4.5 g/L glucose (DMEM/HG), L-glutamic acid (L-Glu), and serotonin (5-HT) from Sigma-Aldrich (Taufkirchen, Germany) and the antibodies mouse-anti-neurofilament (68 kDa) and mouse-anti-glial-fibrillary-acidic-protein (GFAP) from Roche Diagnostics (Mannheim, Germany). Sorbicillactone A of the batch: 2208/2a was used.
Primary neurons: The cortical cell culture was produced from the brains of 17-18 day-old rat embryos, according to a modified procedure [Freshney (1987) Culture of specific cell types. In: Culture of Animal Cells. A Manual of Basic Technique, A. R. Liss, New York, S. 257-288; Perovic et al. (1994) Eur. J. Pharmacol. (Mol. Pharmacol. Sec.) 288:27-33]. After the isolation, the cerebral-hemispheres were put into Hank's Balanced Salt Solution (HBSS) without Ca^2+ and Mg^2+, and the neuronal cells were subsequently dissociated in HBSS using 0.025% (w/v) trypsin (10 min.; 37° C.). The proteolytic reaction was stopped with 10% (v/v) foetal calf serum (FCS). The single-cell suspensions were centrifuged, and the resulting pellet was taken up into Dulbecco's modified Eagles's Medium with 4.5 g/L glucose (DMEM/HG) (contains 2 mM L-glutamine, 100 mU/L insulin, and 10% (v/v) FCS). The cells were plated in a chamber with poly-L-lysine (5 μg/mL, 300 μl/cm^2) in a cell density of 2.0×10^5 cells/cm^2. After two days the DMEM/HG/10%-FCS-medium was removed and replaced with DMEM/HG/serum-free medium. Two weeks after the isolation, the immune staining took place with anti-neurofilament (68 kDa) as a marker for neurons, and anti-GFAP as a marker for glial cells. The cultures contained >80% neurons; the residual 20% were GFAP-positive cells, mainly astrocytes (Ushijima et al. (1995) Eur. J. Neurosci. 7:1353-9). The neurons were held in an atmosphere of 95% air and 5% CO2 at 37° C.
Loading of neurons with Fura-2-AM: The intracellular Ca^2+-concentration ([Ca^2+]i) was determined by fluorescence measurements. The ratio of the absorption of the Ca^2+-indicator dye Fura-2-AM at 340 and 380 nm (Grynkiewicz et al. (1985) J. Biol. Chem. 260:3440-50) was decisive. The neurons were loaded with 6 μM Fura-2-AM in DMEM/HG/serum-free medium (supplemented with 1% (w/v) bovine serum albumin) at 37° C. for 60 min. After incubation, the cells were washed two times with medium, and further incubated for 45 min at 37° C.
Calcium-calibration curve: A calcium-calibration curve was produced according to the methods of Grynkiewicz et al. (1985, J. Biol. Chem. 260:3440-50). Fluorescence pictures were obtained for each buffer at 340 and 380 nm. The quotient from both fluorescence spectra (340/380 nm) was calculated, and depicted as a calibration curve. The quotient (340/380 nm [ratio-value]) of 1.0 corresponds to 228 nM [Ca^2+]i.
Changes of the calcium level in neurons: In all experimental settings, the cells were first loaded with Fura-2-AM, and subsequently stimulated with different substances (in Locke's solution; 154 mM NaCl; 5.6 mM KCl; 3.6 mM NaHCO3; 5.6 mM glucose, and 10 mM Hepes; pH 7.4; without CaCl2). Sorbicillactone A was dissolved in a concentration of 10 mg/mL in 100% (v/v) DMSO, and stored at −20° C. In the first setting, the neurons were stimulated for 5 min with 0.1% (v/v) DMSO (control); after 10 min 200 μM L-glutamic acid (L-Glu), 200 μM serotonin (5-HT), and 2.5 mM CaCl2 were added to the cells. In a second setting, the effect of L-Glu, 5-HT, and 2.5 mM CaCl2 on the calcium level of pre-incubated neurons (each 5 min with 10 μg/mL sorbicillactone A) was tested. In all experiments, the [Ca^2+]i-level was measured for at least 20-25 min. […]

[1] = system: L5178Y-mouse lymphoma cells (ATCC CRL 1722); assay: Apoptosis detection (Cell Death Detection ELISA plus); format: cell-based; conditions: for MW ± SD (OD) / % of the control (negative): 4 hours incubation; for MW ± SD (OD): 405 nm; for % of the control (negative): negative control = 100%
Method: Material: RPMI1640-medium, Hepes buffered, was obtained from Sigma-Aldrich (Taufkirchen, Germany), foetal calf serum (FCS) from Gibco (Karlsruhe, Germany), and Cell Death Detection ELISA plus from Roche (Mannheim, Germany, Cat. No. 1774425). Sorbicillactone A of the batch: 2208/2a was used.
Incubation and preparation of the cells: The L5178Y-mouse lymphoma cells (ATCC CRL 1722)) were counted, and adjusted to a number of cells of 10^4 cells/mL. The sorbicillactone-A- and dihydrosorbicillactone-A-stock solution (10 mg/mL in DMSO) was diluted with medium (RPMI/Hepes with 10% FCS) to concentrations of 60, 20, and 6 μg/mL. In a 96-well-culture plate, 100 μl cell suspension (˜10^3 cells) were each pipetted to each of the 100 μl of the different dihydrosorbicillactone-A- and sorbicillactone-A-solutions. RPMI1640-medium without dihydrosorbicillactone and sorbicillactone A was used as a negative control. The final concentrations were 30, 10, and 3 μg/mL sorbicillactone A and dihydrosorbicillactone A. Four parallel settings of each sample were analysed. The cells were incubated for 4 hours at 37° C. After the incubation, the culture plate was centrifuged at […] (˜1200 rpm) for 10 min at room temperature. The supernatant was carefully pipetted off, and the cells were each overlayered with 200 μl lysis-buffer (Roche-Kit). Then, the cells were lysed for 30 min at room temperature. After the lysis, the culture plate was again centrifuged at 200×g (˜1200 rpm) for 10 min at room temperature.
ELISA: Two strips with eight wells each were taken from the streptavidin-ELISA-plate of the Roche-kit. 20 μl of the supernatant of a cell-lysis (see above) were added into each well. In doing so, the samples with 30 or 10 μg/mL of sorbicillactone A and dihydrosorbicillactone A were loaded as 4-fold, and all other as duplicate determinations. In addition to these sample, a positive control (DNA-histone-complex) was loaded. Then, 80 μl of immune reagent were added into each well. This solution consisted of incubation buffer, anti-histone-biotin, and anti-DNA-peroxidase. The incubation buffer was used as a blank value. The ELISA-plate was incubated for 2 hours in a shaking incubator at room temperature. Them the supernatants were carefully removed, and the wells were each washed 3× with 250 μl of the incubation buffer. After the washing, 100 μl of ABTS-solution were added into each “well”. Subsequently, the cells were incubated for 30 min in the dark at room temperature. The measurement took place in a multiscan at an emission wavelength of 405 nm.

[2] = Relative activity compared with sorbicillactone A (test not specified)

Compound	increase of the 340-/380-nm-values (neuronal cells)	increase of the 340-/380-nm-values, control assumed to be 100% (neuronal cells)	MW ± SD (OD) ([1]; 3 μg/mL)	% of the control (negative) ([1]; 3 μg/mL)	MW ± SD (OD) ([1]; 10 μg/mL)	% of the control (negative) ([1]; 10 μg/mL)	MW ± SD (OD) ([1]; 30 μg/mL)	% of the control (negative) ([1]; 30 μg/mL)	induction of apoptosis ([1]; 3, 10, and 30 μg/mL, 4 hours of incubation)	activity relative to sorbicillactone A [2]
N[C@@H](CCC(=O)O)C(=O)O [L-glutamic acid]	1.715±0.081	307.1%	–	–	–	–	–	–	–	–
NCCc1c[nH]c2ccc(O)cc12 [Serotonin, serotonin]	0.971±0.112	219.9%	–	–	–	–	–	–	–	–
C/C=C/CC/C(O)=C1/C(=O)C(C)=C(O)[C@@]2(C)OC(=O)[C@@](C)(NC(=O)/C=C/C(=O)O)[C@@H]12 [dihydrosorbicillactone A]	–	–	0.016 ± 0.003 OD	76.2%	0.013 ± 0.002 OD	61.9%	0.016 ± 0.004 OD	76.2%	did not result in an induction of apoptosis; also recorded: did not induce apoptosis	five-fold less active
